Measurements as given in ChEMBL document CHEMBL5096235, “In Silico Exploration and Biological Evaluation of Bispecific Peptides Derived from Anti-HER2 Antibodies and Peptide-Camptothecin Conjugates for HER2-Positive Breast Cancer” (J Med Chem, 2022).
The source made the active and inactive calls. No cut-off for these calls is given here. Residues, ends and D or L forms follow the SMILES beside them. *: point of attachment. S(CH2)2OCO2(CPT-20-yl) = CC[C@@]1(OC(=O)OCCS*)C(=O)OCc2c1cc1n(c2=O)Cc2cc3ccccc3nc2-1

Legend:
[1] = molecular target: T1, Receptor tyrosine-protein kinase erbB-2 (Homo sapiens, UniProt P04626); assay: Binding affinity to recombinant HER2 (unknown origin) assessed as dissociation constant by SPR analysis
[2] = molecular target: T1, Receptor tyrosine-protein kinase erbB-2; assay: Binding affinity to HER2 in HER-positive human SK-BR-3 cells assessed as increase in fluorescence intensity at 25 uM by Hoechst 33342 staining based confocal microscopic analysis; assay type: cell-based
[3] = test system: SK-BR-3; assay: Cytotoxicity against HER-positive human SK-BR-3 cells assessed as inhibition of cell growth incubated for 48 hrs by MTT assay; assay type: functional, cell-based; conditions: SK-BR-3, 48 h
[4] = test system: NCI-N87; assay: Cytotoxicity against HER-positive human NCI-N87 cells assessed as inhibition of cell growth incubated for 48 hrs by MTT assay; assay type: functional, cell-based; conditions: NCI-N87, 48 h
[5] = test system: SK-OV-3; assay: Cytotoxicity against HER-positive human SK-OV-3 cells assessed as inhibition of cell growth incubated for 48 hrs by MTT assay; assay type: functional, cell-based; conditions: SK-OV-3, 48 h
[6] = test system: MDA-MB-231; assay: Cytotoxicity against HER-negative human MDA-MB-231 cells assessed as inhibition of cell growth incubated for 48 hrs by MTT assay; assay type: functional, cell-based; conditions: MDA-MB-231, 48 h
[7] = test system: SK-BR-3; assay: Induction of apoptosis in human SK-BR-3 cells assessed as early apoptotic cells at 1 uM incubated for 24 hrs by Annexin V-FITC/PI staining based flow cytometry analysis (Rvb= 4.37%); assay type: functional
[8] = test system: SK-BR-3; assay: Induction of apoptosis in human SK-BR-3 cells assessed as late apoptotic cells at 1 uM incubated for 24 hrs by Annexin V-FITC/PI staining based flow cytometry analysis (Rvb= 5.02%); assay type: functional
[9] = test system: SK-BR-3; assay: Induction of apoptosis in human SK-BR-3 cells assessed as dead cells at 1 uM incubated for 24 hrs by Annexin V-FITC/PI staining based flow cytometry analysis (Rvb= 1.21%); assay type: functional
[10] = test system: SK-BR-3; assay: Induction of apoptosis in human SK-BR-3 cells assessed as live cells at 2 uM incubated for 24 hrs by Annexin V-FITC/PI staining based flow cytometry analysis (Rvb= 89.4%); assay type: functional
[11] = test system: SK-BR-3; assay: Induction of apoptosis in human SK-BR-3 cells assessed as late apoptotic cells at 2 uM incubated for 24 hrs by Annexin V-FITC/PI staining based flow cytometry analysis (Rvb= 5.02%); assay type: functional
[12] = test system: SK-BR-3; assay: Induction of apoptosis in human SK-BR-3 cells assessed as dead cells at 2 uM incubated for 24 hrs by Annexin V-FITC/PI staining based flow cytometry analysis (Rvb= 1.21%); assay type: functional
[13] = test system: SK-BR-3; assay: Induction of cell cycle arrest in human SK-BR-3 cells assessed as accumulation of cells at S phase at 1 uM incubated for 24 hrs by flow cytometry analysis (reference value: 23%); assay type: functional
[14] = test system: SK-BR-3; assay: Induction of cell cycle arrest in human SK-BR-3 cells assessed as accumulation of cells at S phase at 2 uM incubated for 24 hrs by flow cytometry analysis (reference value: 23%); assay type: functional
[15] = molecular target: T2, DNA topoisomerase 1 (Homo sapiens) (UniProt P11387); assay: Inhibition of topoisomerase 1 (unknown origin) assessed as relaxation of supercoiled plasmid pBR322 DNA at 100 uM preincubated for 20 mins followed by pBR322 DNA addition and measured after 30 mins by agarose gel electrophoresis analysis; conditions: time 50.0 min
T2 sequence (whole entry): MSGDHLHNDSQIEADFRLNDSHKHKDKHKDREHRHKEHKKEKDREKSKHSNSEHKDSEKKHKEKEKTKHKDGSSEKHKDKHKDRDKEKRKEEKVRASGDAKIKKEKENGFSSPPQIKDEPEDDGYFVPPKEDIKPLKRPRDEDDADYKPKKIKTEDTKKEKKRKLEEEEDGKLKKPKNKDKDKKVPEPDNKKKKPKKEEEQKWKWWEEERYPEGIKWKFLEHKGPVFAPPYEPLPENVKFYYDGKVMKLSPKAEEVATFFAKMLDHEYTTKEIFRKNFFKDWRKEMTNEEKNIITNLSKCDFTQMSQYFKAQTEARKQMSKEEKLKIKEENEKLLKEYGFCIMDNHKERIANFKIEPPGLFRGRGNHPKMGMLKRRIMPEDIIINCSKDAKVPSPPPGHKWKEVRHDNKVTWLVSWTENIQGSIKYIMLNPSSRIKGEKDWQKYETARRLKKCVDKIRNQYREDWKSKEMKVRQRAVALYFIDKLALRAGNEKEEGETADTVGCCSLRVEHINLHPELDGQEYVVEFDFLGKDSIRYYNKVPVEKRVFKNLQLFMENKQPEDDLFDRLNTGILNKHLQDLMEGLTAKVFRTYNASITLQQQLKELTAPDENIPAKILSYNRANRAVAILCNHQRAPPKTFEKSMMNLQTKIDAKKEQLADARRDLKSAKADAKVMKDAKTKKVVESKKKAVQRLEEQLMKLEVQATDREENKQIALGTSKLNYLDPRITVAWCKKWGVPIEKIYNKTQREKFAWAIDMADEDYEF

[16] = test system: SK-BR-3; assay: Antitumor activity against human SK-BR-3 cells xenografted in nude mouse assessed as reduction in tumor growth at 8 umol/kg, iv administered every 3 days for 14 days and measured every 2 days; assay type: functional, organism-based; conditions: dose 8.0 µmol/kg, time 14.0 day
[17] = Toxicity in nude mouse xenografted with human SK-BR-3 cells assessed as reduction in body weight at 8 umol/kg, iv administered every 3 days for 14 days; assay type: organism-based; conditions: in vivo, 336 h, dose 8 µmol/kg, time 14 day
[18] = […] in nude mouse xenografted with human SK-BR-3 cells assessed as effect on alanine aminotransferase level at 8 micromol/kg, iv administered every 3 days for 14 days; assay type: organism-based; conditions: in vivo, 336 h, dose 8 µmol/kg, time 14 day
[19] = […] in nude mouse xenografted with human SK-BR-3 cells assessed as effect on aspartate aminotransferase level at 8 micromol/kg, iv administered every 3 days for 14 days; assay type: organism-based; conditions: in vivo, 336 h, dose 8 µmol/kg, time 14 day
[20] = Toxicity in nude mouse xenografted with human SK-BR-3 cells assessed as effect on alkaline phosphatase level at 8 micromol/kg, iv administered every 3 days for 14 days; assay type: organism-based; conditions: in vivo, 336 h, dose 8 µmol/kg, time 14 day
[21] = Toxicity in nude mouse xenografted with human SK-BR-3 cells assessed as effect on total protein level at 8 micromol/kg, iv administered every 3 days for 14 days; assay type: organism-based; conditions: in vivo, 336 h, dose 8 µmol/kg, time 14 day
[22] = Toxicity in nude mouse xenografted with human SK-BR-3 cells assessed as effect on globulin level at 8 micromol/kg, iv administered every 3 days for 14 days; assay type: organism-based; conditions: in vivo, 336 h, dose 8 µmol/kg, time 14 day
[23] = Toxicity in nude mouse xenografted with human SK-BR-3 cells assessed as heart damage at 8 micromol/kg, iv administered every 3 days for 14 days by H and E staining based analysis; assay type: organism-based; conditions: in vivo, 336 h, dose 8 µmol/kg, time 14 day
[24] = Toxicity in nude mouse xenografted with human SK-BR-3 cells assessed as liver damage at 8 micromol/kg, iv administered every 3 days for 14 days by H and E staining based analysis; assay type: organism-based; conditions: in vivo, 336 h, dose 8 µmol/kg, time 14 day
[25] = Toxicity in nude mouse xenografted with human SK-BR-3 cells assessed as lung damage at 8 micromol/kg, iv administered every 3 days for 14 days by H and E staining based analysis; assay type: organism-based; conditions: in vivo, 336 h, dose 8 µmol/kg, time 14 day
[26] = Toxicity in nude mouse xenografted with human SK-BR-3 cells assessed as kidney damage at 8 micromol/kg, iv administered every 3 days for 14 days by H and E staining based analysis; assay type: organism-based; conditions: in vivo, 336 h, dose 8 µmol/kg, time 14 day
[27] = Toxicity in nude mouse xenografted with human SK-BR-3 cells assessed as cellular necrosis at 8 micromol/kg, iv administered every 3 days for 14 days by H and E staining based analysis; assay type: organism-based; conditions: in vivo, 336 h, dose 8 µmol/kg, time 14 day

T1 sequence (P04626 whole entry): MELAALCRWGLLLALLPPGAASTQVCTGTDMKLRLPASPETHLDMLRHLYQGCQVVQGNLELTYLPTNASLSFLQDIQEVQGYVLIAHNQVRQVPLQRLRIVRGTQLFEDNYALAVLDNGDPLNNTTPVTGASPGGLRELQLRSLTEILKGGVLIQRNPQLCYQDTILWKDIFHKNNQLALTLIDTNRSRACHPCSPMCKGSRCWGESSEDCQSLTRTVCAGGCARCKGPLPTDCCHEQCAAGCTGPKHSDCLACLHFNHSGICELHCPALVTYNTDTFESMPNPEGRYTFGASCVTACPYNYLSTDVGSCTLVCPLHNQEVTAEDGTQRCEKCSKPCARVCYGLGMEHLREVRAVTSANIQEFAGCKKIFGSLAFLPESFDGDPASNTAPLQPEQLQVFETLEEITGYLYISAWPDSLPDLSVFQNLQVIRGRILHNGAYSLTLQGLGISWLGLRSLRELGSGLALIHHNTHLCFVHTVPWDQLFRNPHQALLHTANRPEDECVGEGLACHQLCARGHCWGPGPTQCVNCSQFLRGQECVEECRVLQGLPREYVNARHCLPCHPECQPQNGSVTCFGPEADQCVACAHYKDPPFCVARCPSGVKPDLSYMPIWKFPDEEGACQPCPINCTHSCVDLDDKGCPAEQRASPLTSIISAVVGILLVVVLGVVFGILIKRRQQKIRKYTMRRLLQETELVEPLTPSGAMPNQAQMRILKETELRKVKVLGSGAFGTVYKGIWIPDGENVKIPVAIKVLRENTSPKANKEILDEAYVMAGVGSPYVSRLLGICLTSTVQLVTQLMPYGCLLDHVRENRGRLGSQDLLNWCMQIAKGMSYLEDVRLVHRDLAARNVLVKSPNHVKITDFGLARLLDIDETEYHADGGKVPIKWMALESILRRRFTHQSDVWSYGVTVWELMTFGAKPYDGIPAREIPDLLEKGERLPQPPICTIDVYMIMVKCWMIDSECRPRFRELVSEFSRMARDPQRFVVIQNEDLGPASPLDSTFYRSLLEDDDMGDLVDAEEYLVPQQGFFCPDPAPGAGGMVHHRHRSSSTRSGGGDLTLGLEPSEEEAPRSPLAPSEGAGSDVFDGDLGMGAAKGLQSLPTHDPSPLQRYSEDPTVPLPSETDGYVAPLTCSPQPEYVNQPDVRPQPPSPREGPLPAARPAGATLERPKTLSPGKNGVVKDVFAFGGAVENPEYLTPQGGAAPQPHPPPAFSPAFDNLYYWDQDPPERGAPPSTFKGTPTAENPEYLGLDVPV

## CC[C@H](C)[C@H](NC(=O)[C@@H](N)CCCNC(=N)N)C(=O)N[C@@H](CCCCN)C(=O)N1CCC[C@H]1C(=O)N[C@@H](CCCNC(=N)N)C(=O)N[C@@H](CCCCN)C(=O)NCC(=O)N[C@@H](Cc1ccc(O)cc1)C(=O)N[C@H](C(=O)N[C@@H](CCCNC(=N)N)C(=O)NCC(=O)N[C@@H](CSSCCOC(=O)O[C@]1(CC)C(=O)OCc2c1cc1n(c2=O)Cc2cc3ccccc3nc2-1)C(=O)NCC(=O)N[C@@H](CC(N)=O)C(=O)N1CCC[C@H]1C(=O)N[C@@H](CC(N)=O)C(=O)N[C@@H](Cc1c[nH]c2ccccc12)C(=O)NCC(=O)N[C@@H](CCCNC(=N)N)C(=O)N[C@@H](CO)C(=O)N[C@@H](Cc1c[nH]c2ccccc12)C(=O)N[C@@H](Cc1ccc(O)cc1)C(=O)N[C@@H](CC(N)=O)C(=O)N[C@@H](CCC(N)=O)C(=O)N[C@@H](CCCNC(=N)N)C(=O)N[C@@H](Cc1ccccc1)C(=O)N[C@@H](CCCCN)C(N)=O)[C@@H](C)O (H-RIKPRKGYTRGC(S(CH2)2OCO2(CPT-20-yl))GNPNWGRSWYNQRFK-NH2)
[1]
  Kd: 330 nM
[2]
  Activity: Active
[3]
  IC50: 1470 nM
[4]
  IC50: 3290 nM
[5]
  IC50: 4290 nM
[6]
  IC50: 7600 nM
[7]
  Activity: 34.9%
[8]
  Activity: 7.25%
[9]
  Activity: 0.26%
[10]
  Activity: 49.1%
[11]
  Activity: 10.8%
[12]
  Activity: 0.64%
[13]
  Activity: 39.2%
[14]
  Activity: 48.5%
[15]
  inhibition: Active
[16]
  Activity: Active
[17]
  Activity: Non-Toxic
[18]
  Activity: Non-Toxic
[19]
  Activity: Non-Toxic
[20]
  Activity: Non-Toxic
[21]
  Activity: Non-Toxic
[22]
  Activity: Non-Toxic
[23]
  Activity: Non-Toxic
[24]
  Activity: Non-Toxic
[25]
  Activity: Non-Toxic
[26]
  Activity: Non-Toxic
[27]
  Activity: Non-Toxic

## CC[C@H](C)[C@H](NC(=O)[C@@H](N)CCCNC(=N)N)C(=O)N[C@@H](CCCCN)C(=O)N1CCC[C@H]1C(=O)N[C@@H](CCCNC(=N)N)C(=O)N[C@@H](CCCCN)C(=O)NCC(=O)N[C@@H](Cc1ccc(O)cc1)C(=O)N[C@H](C(=O)N[C@@H](CCCNC(=N)N)C(=O)NCC(=O)N[C@@H](CSSCCOC(=O)O[C@]1(CC)C(=O)OCc2c1cc1n(c2=O)Cc2cc3ccccc3nc2-1)C(=O)NCC(=O)N[C@@H](CSSCCOC(=O)O[C@]1(CC)C(=O)OCC2=C1C=C1c3nc4ccccc4cc3NC1C2=O)C(=O)NC(=O)C[C@H](NC(=O)CN)C(=O)N1CCC[C@H]1C(=O)N[C@@H](CC(N)=O)C(=O)N[C@@H](Cc1c[nH]c2ccccc12)C(=O)NCC(=O)N[C@@H](CCCNC(=N)N)C(=O)N[C@@H](CO)C(=O)N[C@@H](Cc1c[nH]c2ccccc12)C(=O)N[C@@H](Cc1ccc(O)cc1)C(=O)N[C@@H](CC(N)=O)C(=O)N[C@@H](CCC(N)=O)C(=O)N[C@@H](CCCNC(=N)N)C(=O)N[C@@H](Cc1ccccc1)C(=O)N[C@@H](CCCCN)C(N)=O)[C@@H](C)O (some centres undefined)
[1]
  Kd: 437 nM
[2]
  Activity: Active
[3]
  IC50: 120 nM
[4]
  IC50: 1780 nM
[5]
  IC50: 1270 nM
[6]
  IC50: 7720 nM
[7]
  Activity: 39.8%
[8]
  Activity: 8.5%
[9]
  Activity: 0.49%
[10]
  Activity: 44.7%
[11]
  Activity: 14%
[12]
  Activity: 0.28%
[13]
  Activity: 43.45%
[14]
  Activity: 49.2%
[15]
  inhibition: Active
[16]
  Activity: Active
[17]
  Activity: Non-Toxic
[18]
  Activity: Non-Toxic
[19]
  Activity: Non-Toxic
[20]
  Activity: Non-Toxic
[21]
  Activity: Non-Toxic
[22]
  Activity: Non-Toxic
[23]
  Activity: Non-Toxic
[24]
  Activity: Non-Toxic
[25]
  Activity: Non-Toxic
[26]
  Activity: Non-Toxic
[27]
  Activity: Non-Toxic
